Measurements taken from patent EP1311531B1, “STEROID DERIVED ANTIBIOTICS” (Brigham Young University, priority 2000, dated 2002).
≈ marks a conversion by molar mass, not a printed value. Like-named read-outs stand apart in the source and are kept apart here.

What was measured:
[1] = tested on: Escherichia coli ATCC 25922; assay: MIC and MBC measurement; type: cell-based; settings: E. coli (ATTC 25922)
Description: (§1) General: Microorganisms. Reference strains were purchased from the American Type Culture Collection (Rockville, MD) or Bactrol disks from Difeo Laboratories (Detroit, MI). The following specific ATCC strains were used: 10798 Escherichia coli, 25922 Escherichia coli, 13883 Klebsiella pneumoniae, 27853 Pseudomonas aeruginosa, 14028 Salmonella typhimurium, 29212 Enterococcus faecalis, 25923 Staphylococcus aureus, 19615 Streptococcus pyogenes, and 90028 Candida albicans. Bacterial strains were maintained on Mueller-Hinton agar plates, and Candida albicans was maintained on Sabouraud Dextrose agar plates.
(§2) Tryptic soy broth (TSB) was made by dissolving 27.5 grams of tryptic soy broth without dextrose (DIFCO Laboratories) in 1 liter of deionized water and sterilizing at 121 °C for 15 minutes. Solid agar (TSA) plates were made by dissolving 6.4 grams of tryptic soy broth and 12 grams of agar (purified grade, Fischer Scientific) in 800 mL of deionized water and sterilizing at 121 °C for 20 minutes. Aliquots (20 mL) of the homogeneous solution were then poured in sterile plastic petri dishes (100 x 15 mm, Fisher Scientific). Solutions of compounds were made by dissolving the HCl salt of the respective compound into an appropriate amount of deionized and sterilized water followed by microfiltration.
(§3) Aliquots of 1 mL of the suspension were added to test tubes containing 1 mL TSB and incrementally varied concentrations of cholic acid derivatives and/or erythromycin or novobiocin. In the sensitization experiments, erythromycin or novobiocin were added 15 minutes later than the cholic acid derivatives. The samples were subjected to stationary incubation at 37°C for 24 hours. Sample turbidity was determined by measuring absorption at 760 nm (HP 8453 UV-Visible Chemstation, Hewlett Packard). Additionally, an alliquot from each of the samples showing no measurable turbidity was subcultured on TSA plates (alliquots were diluted to provide fewer than 300 CFU). Colonies that grew on the subculture after overnight incubation were counted and the number of CFU/mL in the samples were calculated. The calculated values were compared to the number of CFU/mL in the original inoculum. […]

[2] = tested on: Staphylococcus aureus ATCC 25923; assay: MIC and MBC measurement; type: cell-based; settings: Table 16 (MIC^a), S. aureus (ATTC 25923)
Description: as §1, §2, §3

[3] = Minimum hemolytic concentration (MHC); type: cell-based; settings: Table 16
Method: Minimum inhibition concentrations (MIC) and minimum hemolytic concentrations (MHC) were measured as described in Li et al., Antimicrob. Agents. Chemother., 1999, 43, 1347. […]

[4] = tested on: Escherichia coli ATCC 25922; assay: Sensitization to erythromycin, novobiocin or rifampicin (permeabilization, FIC); settings: Table 16; with E. coli
Method: FICs can be performed by checkerboard titrations of compounds in one dimension of a microtiter plate, and of antibiotics in the other dimension, for example. The FIC is calculated by looking at the impact of one antibiotic on the MIC of the other and vice versa. […] As used herein, FIC can be determined as follows: FIC = (MIC(compound in combination))/(MIC(compound alone)) + (MIC(antibiotic in combination))/(MIC(antibiotic alone)) [formula]
Aliquots of 1 mL of the suspension were added to test tubes containing 1 mL TSB and incrementally varied concentrations of cholic acid derivatives and/or erythromycin or novobiocin. […] Additionally, an alliquot from each of the samples showing no measurable turbidity was subcultured on TSA plates (alliquots were diluted to provide fewer than 300 CFU). Colonies that grew on the subculture after overnight incubation were counted and the number of CFU/mL in the samples were calculated. The calculated values were compared to the number of CFU/mL in the original inoculum.
Concentrations of 0.5, 1.0 or 3.0 µg/mL of these antibiotics were used, and the concentrations of the cholic acid derivatives required to inhibit bacterial growth of Gram-negative strains were determined.

Gram-negative bacteria = assay: MIC and permeabilization measurements, strain not stated (Table 14, Fig. 5); settings: in words
[5] = Stability (half-lives) in phosphate buffer, decomposition observed via HPLC; type: physicochemical; settings: 50 mM phosphate buffer, room temperature
Method: Compounds 352 - 354 were dissolved in 50 mM phosphate buffered water (pH 2.0, 7.0 or 12.0) at approximately 10 mM concentrations. […] These compounds were used since they contain a chromophore that facilitated monitoring of decomposition by absorption methods common in the HPLC apparatus used.

[6] = Escherichia coli, ATCC25922, Table 16 (MIC^b), read-out: MIC
[7] = Staphylococcus aureus, ATCC25923, read-out: MIC

MIC [1, 6] | MIC [2, 7] | Structure (SMILES) | MHC [3] | c: concentration of the compounds required to lower the MIC of erythromycin from 30 to 1 µg/mL [4] | further results
23 µg/mL | 14 µg/mL | C[C@H](CCC(=O)OCC[N+](C)(C)C)[C@H]1CC[C@H]2[C@@H]3[C@H](OC(=O)CCCN)C[C@@H]4C[C@H](OC(=O)CCCN)CC[C@]4(C)[C@H]3C[C@H](OC(=O)CCCN)[C@]12C [Compound 326] | >200 µg/mL | 2.0 µg/mL | –
30 µg/mL | 11 µg/mL | C[C@H](CCC(=O)OCC[N+](C)(C)C)[C@H]1CC[C@H]2[C@@H]3[C@H](OC(=O)CCN)C[C@@H]4C[C@H](OC(=O)CCN)CC[C@]4(C)[C@H]3C[C@H](OC(=O)CCN)[C@]12C [Compound 325] | >200 µg/mL | 2.0 µg/mL | –
– | – | C[C@H](CCCO)[C@H]1CC[C@H]2[C@@H]3[C@H](NC(=O)CCCCCN)C[C@@H]4C[C@H](NC(=O)CCCCCN)CC[C@]4(C)[C@H]3C[C@H](NC(=O)CCCCCN)[C@]12C [Compound 211] | – | – | activity as a permeabilizer (Gram-negative bacteria): less active than 209c as a permeabilizer
– | – | C[C@H](CCC(=O)O)[C@H]1CC[C@H]2[C@@H]3[C@H](OC(=O)CN)C[C@@H]4C[C@H](OC(=O)CN)CC[C@]4(C)[C@H]3C[C@H](OC(=O)CN)[C@]12C [Compound 327] | >100 µg/mL | >100 µg/mL | MIC ([1]; Table 16, second MIC column (MIC^b)): >100 µg/mL; MIC [2]: >100 µg/mL
3.5 µg/mL (≈ 4.51 µM) | 1.2 µg/mL (≈ 1.55 µM) | CCCCCCCCOC(=O)CC[C@@H](C)[C@H]1CC[C@H]2[C@@H]3[C@H](OC(=O)CCCN)C[C@@H]4C[C@H](OC(=O)CCCN)CC[C@]4(C)[C@H]3C[C@H](OC(=O)CCCN)[C@]12C [Compound 343] | <10 µg/mL | 3.5 µg/mL | –
– | – | C[C@H](CCCN(C)Cc1ccccc1)[C@H]1CC[C@H]2[C@@H]3[C@H](OC(=O)CN)C[C@@H]4C[C@H](OC(=O)CN)CC[C@]4(C)[C@H]3C[C@H](OC(=O)CN)[C@]12C [Compound 352] | – | – | stabilities (half-lives) pH 2.0 ([5]; pH 2.0, approximately 10 mM): >37 days; stabilities (half-lives) pH 7.0 ([5]; pH 7.0, approximately 10 mM): 28 days; stabilities (half-lives) pH 12.0 ([5]; pH 12.0, approximately 10 mM): <30 minutes
